Test results published in PMC8294009, “Genetically-encoded discovery of proteolytically stable bicyclic inhibitors for morphogen NODAL” (Chemical Science, 2021).
Like-named read-outs stand apart in the source and are kept apart here. Each block holds one compound with its values, some of them ahead of it. *1 amine or outer side, *2 acyl side, *3 side chain or, on linkers, in order; H or OH if unused. Where a SMILES comes first, the peptide text is derived from it. Bridges are numbered along the chain shown (N, C = ends). S(p-C6F4)2 = Fc1c(F)c([*:1])c(F)c(F)c1Sc1c(F)c(F)c([*:2])c(F)c1F; X1 = O=C(C=NOCCCCCCOc1cc(C[*:2])cc(C[*:3])c1)[*:1]; X2 = O=C(C=NOCc1cc(C[*:2])cc(C[*:3])c1)[*:1]; mXylylene = c1cc(C[*:1])cc(C[*:2])c1

How the values were obtained:
[1] = Proteolytic stability in Pronase; settings: Streptomyces griseus, Pronase (protease mixture) in PBS, pH 7.4
Experimental: (§1) In a 600 L Eppendorf tube, we combined 196 L PBS (pH 7.4), 2 L of corresponding peptide
(§2) solution (from 10 mM stock) and 2 L of 0.1 mg/mL PronaseTM. The mixture was vortexed and
(§3) incubated at 37 °C. At indicated time points, 10 L of the solution was sampled, quenched with
(§4) 190 L of 50% aq. CH3CN and maintained at 4 °C until analysis by LCMS.

TYK-nu-NODAL cells = format: cell-based; settings: human, 72 h, 10 µM
Experimental: 3.9. General protocol P19 Cell Culture
P19 Cell were obtained from ATCC cell bank and culture in Alpha Minimum Essential Medium with ribonucleotide and […] with 7.5% bovine calf serum and 2.5% fetal bovine serum at 37 °C with 5% CO2 supplementation.
3.10. Inhibition of pSMAD assay with P19 Cell […]
TYK-nu ovarian cancer cells were obtained from JCRB cell bank and cultured in Eagle’s minimal essential medium with 10 % fetal calf serum (Gibco/Thermo Fisher; Waltham, Massachusetts, USA) at 37 °C with 5% CO2 supplementation. To express the constitutive NODAL, a plasmid vector for human NODAL open reading frame (not including the stop codon) was cloned into pCMV6-Entry vector in frame with a tandem MYCDYK (FLAG) tag (Origene Cat. # RC211302). […]
Cells were seeded in three 96 wells plates with 600 cells/well or 6000 cells/well and grow in full media with G418 at 100 μg/mL O/N. The next day the media was changed to contain 19d peptide (10 µM, 1 µM and 0.1 µM) and without G418. Cells viability was measured every 24 hours with CellTiter-Glo® Luminescent Cell Viability Assay (Promega Cat. # G7572) over the course of 72

in vitro [2] = format: in vitro ADME; settings: mouse, serum
Experimental: 4. Proteolytic Stability Methods
4.1. Protocol for measurement of proteolytic stability in cell assay: […]
precipitate any proteins.
4.2. Protocol for measurement of proteolytic stability in PronaseTM :
The mixture was vortexed and […]
peptide solution (from 10 mM stock). The mixture was vortexed and incubated at 37 °C. At […]
precipitate the serum protein.

Pronase™ = test: Proteolytic stability in Pronase; settings: 5 hours, 37 °C
Experimental: as §1, §2, §3, §4

[3] = test system: rhNODAL-induced phosphorylation of SMAD2 in P19 cells; test: Inhibition of pSMAD assay with P19 cells (western blot of p-SMAD2); format: cell-based; settings: control inhibitor, concentration not given, rhNODAL 100 ng mL^−1, 1 hour
Description: 3.6. Processing of Illumina data
The Gzip compressed FASTQ files were downloaded from BaseSpace™ Sequence Hub. The files were converted into tables of DNA sequences and their counts per experiment. Briefly, FASTQ files were parsed based on unique multiplexing barcodes within the reads discarding any reads that contained a low-quality score. Mapping the forward (F) and reverse […] barcoding regions, mapping of F and R priming regions allowing no more than one base substitution each and F-R read alignment allowing no mismatches between F and R reads yielded DNA sequences located between the priming regions. The files with DNA reads, raw counts, and mapped peptide modifications were uploaded to http://48hd.cloud/ server. Each experiment has a unique alphanumeric name (e.g., 20181108-16TSooPA-YW) and unique static URL:
Un- http://48hd.cloud/file/23 https://48hd.cloud/file/2 https://48hd.cloud/file/2 […]
TSL-6 https://48hd.cloud/file/2 https://48hd.cloud/file/2 https://48hd.cloud/file/2 […]
Elution https://48hd.cloud/file/2 https://48hd.cloud/file/2 https://48hd.cloud/file/2 […]
Amplificati https://48hd.cloud/file/2 https://48hd.cloud/file/2 https://48hd.cloud/file/2 […]
3.7. General protocol for protein extraction
All samples in the protein extraction protocol were done on ice. […]

in vitro [4] = settings: Streptomyces griseus, isolated enzyme pronase, pH 7.4
Experimental: as §1, §2, §3, §4

[5] = crosslinker bond

remaining at 5 h, 100 µM [1]: < 1%
Compound: CC(C)C[C@@H]1NC(=O)[C@H](Cc2ccc(O)cc2)NC(=O)[C@@H](NC(=O)[C@H](CC(=O)O)NC(=O)[C@H](Cc2c[nH]cn2)NC(=O)[C@@H](N)CO)CSSC[C@@H](C(N)=O)NC(=O)[C@H](CCC(=O)O)NC1=O [6a] (H-SHDCYLEC-NH2; disulfide 4-8)

remaining at 5 h, 100 µM [1]: 83 ± 6.9%
Compound: CC(C)C[C@@H]1NC(=O)[C@H](Cc2ccc(O)cc2)NC(=O)[C@@H]2CSCc3cc(cc(c3)CSC[C@@H](C(N)=O)NC(=O)[C@H](CCC(=O)O)NC1=O)CON=CC(=O)N[C@@H](Cc1c[nH]cn1)C(=O)N[C@@H](CC(=O)O)C(=O)N2 [6c] (HDCYLEC-NH2; linker N-3-7 via X2)

remaining at 5 h, 100 µM [1]: < 1%
Compound: CC(C)C[C@@H]1NC(=O)[C@H](Cc2ccc(O)cc2)NC(=O)[C@@H](NC(=O)[C@H](CC(=O)O)NC(=O)[C@H](Cc2c[nH]cn2)NC(=O)[C@@H](N)CO)CSCc2cccc(c2)CSC[C@@H](C(N)=O)NC(=O)[C@H](CCC(=O)O)NC1=O [6g] (H-SHDCYLEC-NH2; linker 4-8 via mXylylene)

remaining at 72 h (in vitro [2]): 53%
Compound: C[C@@H]1NC(=O)[C@H](CCCNC(=N)N)NC(=O)[C@H](CCCCN)NC(=O)[C@@H]2CSCc3cc(cc(c3)OCCCCCCON=CC(=O)N[C@@H](Cc3ccc(O)cc3)C(=O)N2)CSC[C@@H](C(N)=O)NC(=O)[C@H](CC(N)=O)NC(=O)[C@H](CCCCN)NC(=O)[C@H](Cc2c[nH]cn2)NC1=O [19b, TSL-[S]Y[C]KRAHKN[C]] (YCKRAHKNC-NH2; linker N-2-9 via X1)
viability of TYK-nu-NODAL cells compared to untreated TYK-nu-NODAL cells (TYK-nu-NODAL cells): 23%

Compound: CC[C@H](C)[C@H](NC(=O)[C@@H](N)CO)C(=O)N[C@H]1CSc2c(F)c(F)c(c(F)c2F)Sc2c(F)c(F)c(c(F)c2F)SC[C@@H](C(=O)NCC(=O)NCC(=O)NCC(N)=O)NC(=O)[C@H](Cc2ccccc2)NC(=O)[C@H](Cc2ccccc2)NC(=O)[C@H](CCCNC(=N)N)NC1=O [PFS-SICRFFCGGG] (H-SICRFFCGGG-NH2; linker 3-7 via S(p-C6F4)2)
stability in Pronase™ (in words) (Pronase™): lower stability than bicycle TSL-3-SICRFFCGGG

Compound: NC(=O)c1ccc(-c2nc(-c3ccc4c(c3)OCO4)c(-c3ccccn3)[nH]2)cc1 [SB431542]
inhibition of rhNODAL-induced phosphorylation of SMAD2 [3]: inhibited

remaining at 5 h, 100 µM [1]: 82 ± 13%
Compound: CC(C)C[C@@H]1NC(=O)[C@H](Cc2ccc(O)cc2)NC(=O)[C@@H]2CSCc3cc(cc(c3)CSC[C@@H](C(N)=O)NC(=O)[C@H](CCC(=O)O)NC1=O)CON=CC(=O)N[C@@H](Cc1c[nH]c3ccccc13)C(=O)N[C@@H](CC(=O)O)C(=O)N[C@@H](Cc1ccc(O)cc1)C(=O)N[C@@H](CCCNC(=N)N)C(=O)N[C@@H](CCC(=O)O)C(=O)N2 [TSL-1-SWDYRECYLEC] (WDYRECYLEC-NH2; linker N-6-10 via X2)

remaining at 5 h, 100 µM (in vitro [4]): 68 ± 14%
Compound: CC(C)C[C@@H]1NC(=O)[C@H](Cc2ccc(O)cc2)NC(=O)[C@@H]2CSCc3cc(cc(c3)OCCCCCCON=CC(=O)N[C@@H](Cc3c[nH]c4ccccc34)C(=O)N[C@@H](CC(=O)O)C(=O)N[C@@H](Cc3ccc(O)cc3)C(=O)N[C@@H](CCCNC(=N)N)C(=O)N[C@@H](CCC(=O)O)C(=O)N2)CSC[C@@H](C(N)=O)NC(=O)[C@H](CCC(=O)O)NC1=O [TSL-6-SWDYRECYLEC] (WDYRECYLEC-NH2; linker N-6-10 via X1)

Compound: Ac-CNTWNPWCPWDAPLCam-NH2 + TBMB
ring closure, isolated yield ([5]; TBMB): 38%

Compound: Ac-CSWPARCLHQDLC-NH2 + TBMB
ring closure, isolated yield ([5]; TBMB): 33%

Compound: H-SFCDWYGC-NH2 + DBMB
ring closure, isolated yield ([5]; DBMB): 10%

Compound: H-SHCDYYC-NH2 + DBMB
ring closure, isolated yield ([5]; DBMB): 47%

Compound: H-SHCVWWDC-NH2 + DBMB
ring closure, isolated yield ([5]; DBMB): 16%

Compound: H-SHDCYLEC-NH2 + DBMB
ring closure, isolated yield ([5]; DBMB): 27%

Compound: H-SICRFFCGGG-NH2 + DBMB
ring closure, isolated yield ([5]; DBMB): 46%

Compound: H-SICRFFCGGG-NH2 + PFS
ring closure, isolated yield ([5]; PFS): 40%

Compound: H-SPCAKGMNYC-NH2 + DBMB
ring closure, isolated yield ([5]; DBMB): 25%

Compound: H-SPCKAGTGQC-NH2 + DBMB
ring closure, isolated yield ([5]; DBMB): 12%

Compound: H-SPCKGPSATC-NH2 + DBMB
ring closure, isolated yield ([5]; DBMB): 10%

Compound: H-SPCKGRHHNC-NH2 + DBMB
ring closure, isolated yield ([5]; DBMB): 63%

Compound: H-SQCKRAHAEC-NH2 + DBMB
ring closure, isolated yield ([5]; DBMB): 10%

Compound: H-SSWPARCLHQDLC-NH2 + DBMB
ring closure, isolated yield ([5]; DBMB): 46%

Compound: H-STCQGECGGG-NH2 + DBMB
ring closure, isolated yield ([5]; DBMB): 19%

Compound: H-STCQGECGGG-NH2 + PFS
ring closure, isolated yield ([5]; PFS): 31%

Compound: H-SWDYRECYLEC-NH2 + DBMB
ring closure, isolated yield ([5]; DBMB): 12%

Compound: H-SWDYRECYLEC-NH2 + TSL-1
ring closure, isolated yield ([5]; TSL-1): 54%

Compound: H-SWDYRECYLEC-NH2 + TSL-6
ring closure, isolated yield ([5]; TSL-6): 42%

Compound: H-SYCKADC-NH2 + DBMB
ring closure, isolated yield ([5]; DBMB): 47%

Compound: H-SYCKADC-NH2 + TSL-1
ring closure, isolated yield ([5]; TSL-1): 37%

Compound: H-SYCKPFC-NH2 + DBMB
ring closure, isolated yield ([5]; DBMB): 62%

Compound: H-SYCKPFC-NH2 + TSL-1
ring closure, isolated yield ([5]; TSL-1): 41%

Compound: H-SYCKRAHKNC-NH2 + DBMB
ring closure, isolated yield ([5]; DBMB): 32%

Compound: H-SYCKRAHKNC-NH2 + TSL-6
ring closure, isolated yield ([5]; TSL-6): 14%

Compound: H-SYCPYSGTNC-NH2 + TSL-6
ring closure, isolated yield ([5]; TSL-6): 32%
